Patent US20240270759A1, “Preparation of SHP2 phosphatase inhibitors and its applications” (Ya Therapeutics Inc, priority 2021, published 2024)

Biological target: T1, SHP2 full-length protein (Homo sapiens, UniProt Q06124)
T1 construct: purchased BPS Bioscience #79330
T1 sequence (Q06124 1-593): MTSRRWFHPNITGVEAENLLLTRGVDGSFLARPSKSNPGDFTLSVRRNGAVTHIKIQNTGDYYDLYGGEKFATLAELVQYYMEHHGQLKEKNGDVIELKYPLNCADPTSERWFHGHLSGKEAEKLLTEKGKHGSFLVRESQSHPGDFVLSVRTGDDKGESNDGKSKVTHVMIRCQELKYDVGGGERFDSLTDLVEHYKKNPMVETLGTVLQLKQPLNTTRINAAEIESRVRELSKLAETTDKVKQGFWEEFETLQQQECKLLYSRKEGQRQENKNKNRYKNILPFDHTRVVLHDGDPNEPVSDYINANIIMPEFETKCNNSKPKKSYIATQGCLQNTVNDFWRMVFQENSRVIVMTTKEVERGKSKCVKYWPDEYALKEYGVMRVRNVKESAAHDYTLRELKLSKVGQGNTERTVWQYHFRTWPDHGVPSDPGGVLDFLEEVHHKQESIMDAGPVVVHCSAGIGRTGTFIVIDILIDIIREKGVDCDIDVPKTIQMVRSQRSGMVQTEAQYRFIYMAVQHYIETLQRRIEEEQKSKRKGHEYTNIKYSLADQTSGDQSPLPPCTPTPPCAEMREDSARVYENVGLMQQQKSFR
Test: SHP2 allosteric inhibition experiment (Homogeneous Full Length SHP-2 Assay Kit)
Assay type: biochemical
Settings: full-length SHP2 0.06 nM with SHP-2 activating peptide; ten-point, 1 μM to 0.05 nM; read-out: IC50 Values of Compounds Inhibiting SHP2
From the text: The following further describes and explains the present invention in combination with test examples, but these examples are not meant to limit the scope of the present invention. SHP2 allosteric inhibition experiment
The purpose of this test is to measure the ability of the compounds to inhibit the allosteric activity of the SHP2 full-length protein. Experimental equipment: a centrifuge (5810R) is purchased from Eppendorf Company; pipettes are purchased from Eppendorf Company and Rainin Company, and microplate readers are purchased from BioTek Company of the United States, SynergyH1 multimode microplate reader.
Experimental method: Homogeneous Full Length SHP-2 Assay Kit (BPS Bioscience, #79330) is used to detect SHP2 activity in vitro. First, add 18 μL of Master Mix to 96-well low-adsorption microplate (NUNC, #267342), that is, 0.5 μL of SHP-2 activating Peptide and 5 mM DTT are included in the reaction buffer with a final concentration of 1×. After centrifugation, add 5 μL of the compound to be tested in DMSO (final DMSO content is 1% (V/V) in each well: dissolve the compound to be tested in DMSO to 1 mM, conduct triple dilution with a total of 10 concentration levels ranging from 1 μM to 0.05 nM in the reaction buffer. After diluting SHP2 in 1× reaction buffer to a final concentration of 0.06 nM, add it to the reaction microwell plate, 2 μL per well. Set a full activity control ([…]) and a full inhibition control (without SHP-2) on the reaction plate, and incubate the reaction mixture at room temperature for 60 minutes after centrifugation.
After incubation, add 25 μL of Substrate solution to each well, containing Substrate with a final concentration of 10 μM and DTT with a final concentration of 5 mM, and after centrifugation, continue to incubate at room temperature for 30 minutes. After the reaction, set the excitation wavelength at 340 nm, the emission wavelength at 455 nm, and the gain value to 75 on the Synergy H1 microplate reader (Biotek) for reading.
Take the full activity control and full inhibition control as the values of Max and Min, and calculate the percentage inhibition rate of the wells treated with the compound based on the positive control wells (DMSO control wells) and negative control wells (no kinase added) on the reaction plate, (inhibition rate percentage=100−[(test compound−Min average value)/(Max average value−Min average value)]×100%. IC50 values of test compounds are calculated by fitting percentage of inhibition and ten-point concentration data to a 4-parameter nonlinear logic formula using GraphPad prism.

IC50, ≤ 10 nM:
C[C@@H]1OCC2(CCN(c3ncc(Sc4cccc(NC(=O)c5ncccn5)c4Cl)cn3)CC2)[C@@H]1N [Compound 123, N-(3-((2-((3S,4S)-4-amino-3-methyl-2-oxa-8-azaspiro[4.5]decane-8-yl I)pyrimidine-5-yl)mercapto)-2-chlorophenyl)pyrimidine-2-carboxamide]
N[C@H]1c2ccncc2CC12CCN(c1ccc3c(=O)n(-c4cccc(Cl)c4Cl)c(=O)[nH]c3c1)CC2 [Compound 5, (S)-7-(5-Amino-5,7-dihydrospiro[cyclopenta[c]pyridine-6,4′-piperidine]-1′-yl)-3-(2,3-dichlorophenyl)auinazoline-2.4(1H,3H)-dione]
N[C@@H]1c2ccncc2CC12CCN(c1ccc3c(=O)n(-c4ccnc(NC5CC5)c4Cl)c(=O)[nH]c3n1)CC2 [Compound 28]
CCn1ccc(-c2cccc(Sc3ncc(N4CCC5(CC4)CO[C@@H](C)[C@H]5N)nn3)c2Cl)n1 [Compound 129, (3S,4S)-8-(3-((2-chloro-3-(1-ethyl-1H-pyrazole-3-yl)phenyl)mercapto)-1,2,4-triazine-6-yl)-3-methyl-2-oxa-8-azaspiro[4.5]decane-4-amine]
CC(C)n1ccc(-c2cccc(Sc3cnc4nc(N5CCC6(CC5)CO[C@@H](C)[C@H]6N)ncc4n3)c2Cl)n1 [Compound 70, (3S,4S)-8-(6-((2-chloro-3-(1-isopropyl-1H-pyrazole-3-yl)phenyl)mercapto)pteridine-2-yl)-3-methyl-2-oxa-8-azaspiro[4.5]decane-4-amine]
C[C@@H]1OCC2(CCN(c3cnc4nc(Sc5cccc(NC(=O)c6c(O)nc7n(c6=O)CCCC7)c5Cl)ccc4n3)CC2)[C@@H]1N [Compound 98, N-(3-((2-((3S,4S)-4-amino-3-methyl-2-oxa-8-azaspiro[4.5]decane-8-yl)pyridinyl[2,3-b]pyrazine-6-yl)mercapto)-2-chlorophenyl)-2-hydroxy-4-oxo-6,7,8,9-tetrahydro-4H-p yridinyl[1,2-a]pyrimidine-3-carboxamide]
C[C@@H]1OCC2(CCN(c3nnc(Sc4cccc(NC(=O)c5c(O)nc6n(c5=O)CCCC6)c4Cl)nn3)CC2)[C@@H]1N [Compound 137, N-(3-((5-((3S,4S)-4-amino-3-methyl-2-oxa-8-azaspiro[4.5]decane-8-yl)s-tetrazine-3-yl)mercapto)-2-chlorophenyl)-2-hydroxy-4-oxa-6,7,8,9-tetrahydro-4H-pyridinyl[1,2-a]pyrimidine-3-carboxamide]
CC(C)n1ccc(-c2cccc(Sc3ncc4nc(N5CCC6(CC5)CO[C@@H](C)[C@H]6N)ccc4n3)c2Cl)n1 [Compound 71, (3S,4S)-8-(2-((2-chloro-3-(1-isopropyl-1H-pyrazole-3-yl)phenyl)mercapto)pyridinyl[3,2-d]pyrimidine-6-yl)-3-methyl-2-oxa-8-azaspiro[4.5]decane-4-amine]
NC1c2cnccc2CC12CCN(c1ccc3c(=O)n(-c4cccc(Cl)c4Cl)c(=O)[nH]c3c1)CC2 (stereo in doubt) [Compound 6, (S)-7-(7-Amino-5,7-dihydrospiro [cyclopenta[c]pyridine-6,4′-piperidine]-1′-yl)-3-(2,3-dichlorophenyl)quinazoline-2,4(1H,3H)-dione]
NC1COCC12CCN(c1ccc3c(=O)n(-c4cccc(Cl)c4Cl)c(=O)[nH]c3c1)CC2 (stereo in doubt) [Compound 2, (S)-7-(4-amino-2-oxa-8-azaspiro[4.5]decane-8-yl)-3-(2,3-dichlorophenyl)quinazoline-2,4(1H,3H)-dione]
C[C@@H]1OCC2(CCN(c3ccc4nc(Sc5cccc(NC(=O)c6cnccn6)c5Cl)ncc4n3)CC2)[C@@H]1N [Compound 86, N-(3-((6-((3S,4S)-4-amino-3-methyl-2-oxa-8-azaspiro[4.5]decane-8-yl)pyridinyl[3,2-d]pyrimidine-2-yl)mercapto)-2-chlorophenyl)pyrazine-2-carboxamide]
CCn1ccc(-c2cccc(Sc3nnc(N4CCC5(CC4)CO[C@@H](C)[C@H]5N)nn3)c2Cl)n1 [Compound 128, (3S,4S)-8-(3-((2-chloro-3-(1-ethyl-1H-pyrazole-3-yl)phenyl)mercapto)-tetrazine-6-yl)-3-methyl-2-oxa-8-azaspiro[4.5]decane-4-amine]
CCn1ccc(-c2cccc(Sc3cnc(N4CCC5(CC4)CO[C@@H](C)[C@H]5N)nn3)c2Cl)n1 [Compound 131, (3S,4S)-8-(6-((2-chloro-3-(1-ethyl-1H-pyrazole-3-yl)phenyl)mercapto)-1,2,4-triazine-3-yl)-3-methyl-2-oxa-8-azaspiro[4.5]decane-4-amine]
C[C@@H]1OCC2(CCN(c3ncc4nc(Sc5cccc(-c6ccncn6)c5Cl)cnc4n3)CC2)[C@@H]1N [Compound 76, (3S,4S)-8-(6-((2-chloro-3-(pyrimidine-4-yl)phenyl)mercapto)pteridine-2-yl)-3-methyl-2-oxa-8-azaspiro[4.5]decane-4-amine]
CCn1ccc(-c2cccc(Sc3ncc(N4CCC5(CC4)CO[C@@H](C)[C@H]5N)cn3)c2Cl)n1 [Compound 100, (3S,4S)-8-(2-((2-chloro-3-(1-ethyl-1H-pyrazole-3-yl)phenyl)mercapto)pyrimidine-5-yl)-3-methyl-2-oxa-8-azaspiro[4.5]decane-4-amine]
C[C@@H]1OCC2(CCN(c3ncc(Sc4cccc(Nc5ncccn5)c4Cl)cn3)CC2)[C@@H]1N [Compound 120, (3S,4S)-8-(5-((2-chloro-3-(pyrimidine-2-amino)phenyl)mercapto)pyrimidine-2-yl)-3-methyl-2-oxa-8-azaspiro[4.5]decane-4-amine]
C[C@@H]1OCC2(CCN(c3cnc4nc(Sc5cccc(NC(=O)c6c(O)nc7n(c6=O)CCCC7)c5Cl)ncc4n3)CC2)[C@@H]1N [Compound 87, N-(3-((6-((3S,4S)-4-amino-3-methyl-2-oxa-8-azaspiro[4.5]decane-8-yl)pteridine-2-yl)mercapto)-2-chlorophenyl)-2-hydroxy-4-oxo-6,7,8,9-tetrahydro-4H-pyridinyl[1,2-a]p yrimidine-3-carboxamide]
C[C@@H]1OCC2(CCN(c3ncc4nc(Sc5cccc(Oc6ccn(C)n6)c5Cl)cnc4n3)CC2)[C@@H]1N [Compound 93]
CCn1ccc(-c2cccc(Sc3ncc4nc(N5CCC6(CC5)CO[C@@H](C)[C@H]6N)cnc4n3)c2Cl)n1 [Compound 66, (3S,4S)-8-(2-((2-chloro-3-(1-ethyl-1H-pyrazole-3-yl)phenyl)mercapto)pteridine-6-yl)-3-methylyl-2-oxa-8-azaspiro[4.5]decane-4-amine]
C[C@@H]1OCC2(CCN(c3cnc(Sc4cccc(-c5ccncn5)c4Cl)nc3)CC2)[C@@H]1N [Compound 106, (3S,4S)-8-(2-((2-chloro-3-(pyrimidine-4-yl)phenyl)mercapto)pyrimidine-5-yl)-3-methyl-2-oxa-8-azaspiro[4.5]decane-4-amine]
C[C@@H]1OCC2(CCN(c3ncc(Sc4cccc(NC(=O)c5cnccn5)c4Cl)cn3)CC2)[C@@H]1N [Compound 126, N-(3-((2-((3S,4S)-4-amino-3-methyl-2-oxa-8-azaspiro[4.5]decane-8-yl)pyrimidine-5-yl)mercapto)-2-chlorophenyl)pyrazine-2-carboxamide]
